Laboratory results as given in patent US20260374739A1, “SMALL MOLECULAR WEIGHT CHEMICAL COMPOUND TO ANTAGONIZE EPH-EPHRIN TETRAMERIZATION AND INHIBIT BIDIRECTIONAL SIGNALING” (THE BOARD OF REGENTS OF THE UNIVERSITY OF TEXAS SYSTEM, priority 2022, published 2026).
Entries after “also recorded” stand apart in the source; their conditions may differ.

Columns and labels:
[1] = tested on: DH neurons in the spinal cord; test: dorsal horn neuron activation (Trap2/Ai9) after CFA; format: in vivo, mouse; details: listed as A20
Procedure: FIG. 65 depicts development of a quantitative fluorescent method to assess the activation of DH neurons in the spinal cord following a chronic, […]. The left hind paws of EphB1+/+ wild-type, EphB1+/− heterozygous, and EphB1−/− homozygous mutant mice that also contained the Trap2/CreERT2 driver and the Ai9/tdTomato reporter were injected once with CFA to induce inflammatory pain. Four hours later, mice were then injected IP with 4-hydroxy-tamoxifen (4-OHT, 40 mg/kg in sunflower seed oil) to activate Cre recombinase and permanently label with red fluorescence the neurons that were activated during the short window of time (~8 hr) until the 4-OHT is degraded. Fourteen days later, animals were perfused with 4% paraformaldehyde dissolved in PBS and then […] thick vibratome serial sections of the lumbar spinal cord were obtained, mounted, and viewed under fluorescence microscopy to identify red labeled neurons in the superficial dorsal horn of the spinal cords that were activated between ~4-12 hr after the CFA induction of inflammatory pain. Superficial red neurons were counted on the left (injured) and right (uninjured) side dorsal horns (boxed areas) from 8-12 serial sections along the span of lumbar cord of each animal. […]

EphB2-Fc with EB2-His = molecular target: T1, EphB2-Fc with EB2-His (Mus musculus, UniProt P54763); test: Alpha assay EphB2-EB2; format: binding
T1 construct: soluble EphB ectodomains conjugated to Fc from R&D Systems; mouse EB2-His residues 18-232; purchased R&D Systems (EphB-Fc); Sino Biologicals (EphrinB-His)
Procedure: FIG. 5D depicts results from an alpha assay using EphB2-Fc or EphB4-Fc with EB2-His and increasing A20 concentrations to calculate IC50 determination (~10 μM, similar to that found in FIG. 5C).
Protein interaction assays were developed using soluble EphB ectodomains conjugated to Fc from R&D Systems (e.g., rat EphB1-Fc residues 18-538, which is 99.4% identical to human) and EphrinB ectodomains conjugated to His from Sino Biologicals (e.g., mouse EB2-His residues 18-232, which is 97.7% identical to human). Titrating concentrations of the EphB1-Fc ectodomain (or unconjugated Fc protein as negative control) was added with titrating amounts of the three different EphrinB ectodomains (EB1-His, EB2-His, or EB3-His) with 125 ng each of the Protein A donor, anti-6×-His acceptor beads, 2% DMSO, and 1× HiBlock buffer (all from PerkinElmer) in 384 well plates, and after 3 hr incubation at RT were read in an Envision Multilabel Reader 2102. […] No signal above background (<1,500) was detected for wells that contained an Fc control protein and the EB-His proteins or just the EphB1-Fc protein and no EB-His protein.
A20, E13, and other compounds from the top 32 hits were then characterized in pulldown assays. […]

[2] = tested on: normal human dermal fibroblast (NHDF) cells; test: MTT cytotoxicity; format: cell-based; details: up to 10 μM, 48 hr
Procedure: Potential cytotoxicity of A20 was evaluated using MTT assay performed after culturing normal human dermal fibroblast (NHDF) cells with increasing concentrations of A20 for 48 hr.

T1 sequence (P54763 19-543 limits assumed): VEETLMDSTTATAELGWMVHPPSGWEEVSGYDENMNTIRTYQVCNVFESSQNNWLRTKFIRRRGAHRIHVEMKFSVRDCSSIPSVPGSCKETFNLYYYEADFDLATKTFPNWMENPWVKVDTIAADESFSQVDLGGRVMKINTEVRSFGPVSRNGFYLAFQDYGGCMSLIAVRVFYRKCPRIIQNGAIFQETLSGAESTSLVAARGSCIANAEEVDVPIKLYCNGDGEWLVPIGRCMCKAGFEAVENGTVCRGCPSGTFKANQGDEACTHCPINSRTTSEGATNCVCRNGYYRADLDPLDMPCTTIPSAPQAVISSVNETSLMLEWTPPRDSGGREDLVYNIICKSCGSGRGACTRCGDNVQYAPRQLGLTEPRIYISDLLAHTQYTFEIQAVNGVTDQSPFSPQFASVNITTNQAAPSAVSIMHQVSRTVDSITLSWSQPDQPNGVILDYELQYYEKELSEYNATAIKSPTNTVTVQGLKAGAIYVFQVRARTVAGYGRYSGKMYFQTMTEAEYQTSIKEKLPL

## Oc1c(Br)cc(CN2CCOCC2)c2cccnc12 [Compound 5, 7-bromo-5-(morpholinomethyl)quinolin-8-ol]
[1]
  DH neuron activation: significantly fewer labeled neurons in the injured side; also recorded: dramatically reduced DH neuron activation
EphB2-Fc with EB2-His
  IC50: ~10 µM
[2]
  cytotoxicity: not toxic
